# Results from PubChem BioAssay AID489027 (Sanford-Burnham Center for Chemical Genomics, 2010).
# Calls of active or inactive are those of the source. How the calls were made is not given here.
# Target: UPR counterscreen luciferase reporter, luminescence
# Assay: luciferase reporter activation, UPR counterscreen line – cell-based, luminescence, counter-screen for adaptive UPR activator project, dose response (AID 489027)
row,SMILES,EC50
1,Cc1ccc(-n2nc3c(N4CCC(C(=O)NCCc5ccccc5C)CC4)nnc(C)c3c2C)cc1,> 80 µM (inactive)
2,Cn1nc(C(F)(F)F)c(/C=N/OC(=O)c2ccccc2)c1SCc1ccccc1Cl,inactive
3,Cc1nc(Nc2nc(-c3ccccc3)cc(=O)[nH]2)nc2ccccc12,> 80 µM (inactive)
4,Cc1ccc2c(c1)C(=O)C(=O)N2Cc1ccc(Cl)cc1,inactive
5,COc1ccc(C(=O)Nc2cccc(/C=C/c3nc4ccccc4c(=O)[nH]3)c2)cc1,> 80 µM (inactive)
6,Nc1cccc(-c2nc3cc(S(=O)(=O)c4ccc5oc(-c6cccc(N)c6)nc5c4)ccc3o2)c1,> 80 µM (inactive)
7,COc1ccc(Nc2nc(N)c([N+](=O)[O-])c(NC3CCCCC3)n2)cc1,> 80 µM (inactive)
8,CCOC(=S)SCC(=O)Nc1nc(-c2ccc(Br)cc2)cs1,13 µM
9,COc1cc(NC(=O)c2cncc(-c3ccc(C#N)cc3)c2)cc(C(=O)Nc2cccc(C(F)(F)F)c2)c1,inactive
10,O=C(O)c1ccc(N2C(=O)/C(=C/c3ccc(-c4ccc([N+](=O)[O-])cc4)o3)C=C2c2ccccc2)cc1,> 80 µM (inactive)
11,Oc1ccc(/C=N/Nc2ncnc3c2ncn3Cc2ccccc2)cc1O,7.62 µM
12,COc1cccc(/C=N/Nc2ccc([N+](=O)[O-])cn2)c1O,> 80 µM (inactive)
13,COc1ccc2cc(C)c3nnc(SCC(=O)Nc4nc(-c5ccc(F)cc5)cs4)n3c2c1,13 µM
14,Brc1ccc(-c2ccc(/C=N/Nc3nncc(-c4ccccc4)n3)o2)cc1,17.4 µM
15,C/C(Cl)=C\Cn1c(O)c(N=NC(N)=S)c2cc(Br)ccc21,17.3 µM
16,COc1ccc(N2CCN(Cc3nc(N)nc(Nc4ccc(C)c(Cl)c4)n3)CC2)cc1,> 80 µM (inactive)
17,CCC(=O)Nc1ccc(NC(=O)CSc2nc3cc4c(cc3cc2C)CCC4)cc1,> 80 µM (inactive)
18,CN1/C(=C\C(=O)COC(=O)c2ccc(O)c(O)c2)C(C)(C)c2ccccc21,6.61 µM
19,O=[N+]([O-])c1ccc(N/N=C/c2ccc(OCc3cccc4ccccc34)cc2)nc1,> 80 µM (inactive)
20,COc1ccc(C2c3ccc4ccccc4c3Oc3ncn(CCCN(C)C)c(=N)c32)cc1 (configuration not stated),8.25 µM
21,O=C(NC(=S)Nc1cc(-c2nc3ccccc3[nH]2)ccc1Cl)c1ccc2c(c1)OCO2,8.21 µM
22,COC(=O)c1c(NC(=O)c2nc3ccccc3s2)sc2c1CC(C)(C)NC2(C)C,> 80 µM (inactive)
23,CCCc1nc2c(c(=O)c3ccccc3n2C)c(=O)n1C1CCCCCC1,> 80 µM (inactive)

row,SMILES,EC50
1,O=C1NC(=O)N(Cc2ccccc2)C(=O)/C1=C\c1ccco1,inactive
2,COc1cc(/C=N/Nc2nc(Nc3ccccc3)nc(-n3nc(C)cc3C)n2)cc(OC)c1OC,> 80 µM (inactive)
3,C=CCN1C(=O)/C(=C2/Sc3ccc(OC)cc3N2C)SC1=Nc1cccc(O)c1,> 80 µM (inactive)
4,O=C(Nc1ccc2oc(-c3ccccc3Cl)nc2c1)c1cncc(Br)c1,> 80 µM (inactive)
5,CCC1CCc2c(sc3nc(SCC(=O)NCc4ccco4)n(-c4ccccc4)c(=O)c23)C1 (configuration not stated),15.8 µM
6,COC(=O)c1sccc1NC(=O)c1cc(-c2cccc(C)c2)nc2ccccc12,> 80 µM (inactive)
7,COc1cccc2sc(N3CCN(c4nc5ccccc5s4)CC3)nc12,16.8 µM
8,COc1ccc(S(=O)(=O)N2c3cc(Cl)ccc3Oc3nc4ccccc4nc32)cc1,> 80 µM (inactive)
9,CCC/C(=N/Nc1ccc(Cl)cc1)c1cnnc(-c2ccccc2)n1,inactive
10,CCN(CC)S(=O)(=O)c1ccc2c(c1)C(=NO)c1cc(S(=O)(=O)N(CC)CC)ccc1-2,> 80 µM (inactive)
11,O=C(NCc1ccccc1Cl)c1cccc2c1C(=O)c1ccc(-c3ccc(OC(F)(F)F)cc3)cc1S2(=O)=O,9.15 µM
12,CSc1ccccc1NC(=O)c1cc(-c2cccnc2)nc2ccc(Br)cc12,> 80 µM (inactive)
13,O=C(Nc1ccc(SC(F)F)cc1)c1cc(-c2ccncc2)nc2ccccc12,> 80 µM (inactive)
14,CCOC(=O)/C=c1\s/c(=C\c2ccc3cc(OC)ccc3c2)c(=O)n1CC(=O)NCC1CCCO1 (configuration not stated),> 80 µM (inactive)
15,COc1cc(NC(=O)c2ccco2)c(C(=O)OCC(=O)c2c[nH]c3ccccc23)cc1OC,> 80 µM (inactive)
16,CCOC(=O)/C(=C\c1ccccc1)C(=O)c1cc(C(C)=O)c(Nc2ccccc2)s1,3.71 µM
17,COc1c(Cl)cc(Cl)cc1/C=N/NC(=O)c1nnn(-c2nonc2N)c1CN1CCC(C)CC1,inactive
18,COc1ccc(-c2nn(-c3ccccc3)cc2/C=C/C(=O)OCC(=O)Nc2cccc(C#N)c2)cc1,> 80 µM (inactive)
19,N#Cc1ccc(N/N=C/c2cn(-c3ccccc3)nc2-c2ccccc2)c([N+](=O)[O-])c1,inactive
20,O=c1oc(CCCO)cc2ccc(/C=C/c3cccc([N+](=O)[O-])c3)cc12,> 80 µM (inactive)
21,Cn1ncc(N=Cc2c(O)ccc3ccccc23)c1C(=O)Nc1cccc(Cl)c1,> 80 µM (inactive)
22,CC(C)N(C(=O)[C@H]1C[C@H](CC(=O)NCC23CC4CC(CC(C4)C2)C3)C(=O)N2CCc3c([nH]c4ccc(Cl)cc34)[C@]12C)C(C)C,inactive
23,CCCCCCCCCCOC(=O)Cn1c(COc2ccccc2C)[n+](C)c2ccccc21,> 80 µM (inactive)

row,SMILES,EC50
1,CC(C)(C)C(=O)NC(=S)NNC(=O)c1ccc(-c2ccccc2)cc1,8.05 µM
2,Cn1c(-c2ccccc2)c(/C=N/NC(=O)c2ccc(O)cc2)c2ccccc21,> 80 µM (inactive)
3,C#CCn1c(=NC(=O)c2ccc(Cl)s2)sc2cccc(OC)c21,> 80 µM (inactive)
4,C=CCOc1ccc2cccc(/C=N/NC(=O)c3cc4cc([N+](=O)[O-])ccc4s3)c2c1,inactive
5,Cc1ccc(Cl)cc1N1CCN(Cc2nc3c(c(=O)[nH]c(=O)n3C)n2CCc2ccccc2)CC1,16.7 µM
6,Cc1ccc2oc(C(Cl)(Cl)Cl)cc(=O)c2c1,> 80 µM (inactive)
7,Cn1c(/C=C/c2ccc(Cl)cc2Cl)c([N+](=O)[O-])c(=O)n(C)c1=O,12.8 µM
8,CC1CCC(C(C)C)C(OC(=O)Cn2c(-c3ccc(Br)cc3)[n+](C)c3ccccc32)C1 (configuration not stated),10.9 µM
9,CCN(CC)c1ccc(N=Cc2c(O)n(Cc3ccccc3)c(=O)[nH]c2=O)cc1,inactive
10,COc1ccc(C(CCNCc2ccccc2)c2ccc(F)cc2)cc1 (configuration not stated),10.4 µM
11,O=C(Oc1ccc(F)cc1C(=O)/C=C/c1cccs1)c1cccc([N+](=O)[O-])c1,inactive
12,Cc1cccnc1Nc1nc(-c2ccc(O)c(O)c2)cs1,2.29 µM
13,CC1=CC(C)[C@H](/C=N/n2c(=O)[nH]c3c([nH]c4ccc(C)cc43)c2=O)C(C)C1 (some centres not stated),inactive
14,Cc1ccc(-c2nnc(-c3ccc(NC(=O)Cc4cccs4)cc3)o2)cc1,> 80 µM (inactive)
15,CN(C)CCCN(C(=O)c1cc(-c2cccs2)nc2ccccc12)c1nc2ccc(F)cc2s1,15.9 µM
16,CN1Cc2c(N3CCOCC3)nc3sc(C(=O)c4ccc(Br)cc4)c(N)c3c2CC1(C)C,18.7 µM
17,Cn1c(Cl)cnc1C1CC(=O)c2cc(Cl)ccc2O1 (configuration not stated),12 µM
18,O=C(/C=C/c1ccc(Cl)cc1)NC(=S)Nc1ccc(N2CCOCC2)c(Cl)c1,> 80 µM (inactive)
19,COc1ccccc1C(=O)NC(=S)NNC(=O)c1sc2ccccc2c1Cl,inactive
20,Cc1ccc2c(c1)C(c1ccc(N3CCOCC3)cc1)=NNC(c1cccs1)=N2,inactive
21,O=c1cc(C(Cl)(Cl)Cl)oc2c1ccc1ccccc12,> 80 µM (inactive)
